Results on nine compounds are retold here after US8455214B2, “Methods for determining chemotherapeutic agents targeting alpha-glucan pathways and uses thereof” (priority 2009, dated 2013).

The target of one assay is Mtb GlgE (Mycobacterium tuberculosis, UniProt P9WQ17). The assay is classed as biochemical. The settings on record: for Km: read-out: Km^app.
Assay [1] has as its system Mtb ΔtreS ΔglgE (pMV361::treS). In kind it is cell-based, Mycobacterium tuberculosis. The settings on record: in the presence of 5 mM VA; TLC.
The subject of another assay is trehalose synthase TreS. The settings on record: reference 13; cited from earlier work.
A further assay relates to Mtb WT. The assay is classed as cell-based, Mycobacterium tuberculosis.
Assay [2] concerns M. smegmatis ΔglgB mutant. In kind it is cell-based. The settings on record: to a somewhat smaller extent than ΔglgE.
Assay [3] concerns M. smegmatis ΔglgE mutant. Nature of the assay: Sensitivity of the M. smegmatis ΔglgE mutant toward mono- and disaccharides (growth on Middlebrook 7H10 agar). In kind it is cell-based. The settings on record: for growth of the mutant: glucose disaccharides. The source says:
FIG. 2A-2F. Characterization of the M. smegmatis ΔglgE mutant. […] (B). Trehalose sensitivity of the ΔglgE mutant. […] (D) Trehalose sensitivity of the ΔglgB mutant. (E) M1P accumulation in the ΔglgE and ΔglgB mutants determined by TLC/autoradiography analysis of extracts from cells labeled with 14C-trehalose for the indicated time intervals. (F) Maltose accumulation in Δpep2 mutant strains determined by TLC/autoradiography analysis of cell extracts from cells labeled with 14C-trehalose for 30 min. In (B) and (D), equal dilutions of cultures were spotted onto Middlebrook 7H10 agar plates containing trehalose. Comp. refers to mutants complemented with the respective WT genes.
The sensitivity was highly specific, since growth of the mutant was not inhibited by other glucose disaccharides like maltose or α,β-trehalose [α-D-glucopyranosyl-(1→1)-β-D-glucopyranoside].

The subject of another assay is Mtb. The settings on record: reference 14; cited from earlier work.
Setting [4] is: acceptor maltohexaose with 1 mM M1P.
Setting [5] is: donor M1P with 1 mM maltohexaose.

Read-outs that look alike come from different tables or passages of the source.

Mtb GlgE, sequence (P9WQ17 whole entry): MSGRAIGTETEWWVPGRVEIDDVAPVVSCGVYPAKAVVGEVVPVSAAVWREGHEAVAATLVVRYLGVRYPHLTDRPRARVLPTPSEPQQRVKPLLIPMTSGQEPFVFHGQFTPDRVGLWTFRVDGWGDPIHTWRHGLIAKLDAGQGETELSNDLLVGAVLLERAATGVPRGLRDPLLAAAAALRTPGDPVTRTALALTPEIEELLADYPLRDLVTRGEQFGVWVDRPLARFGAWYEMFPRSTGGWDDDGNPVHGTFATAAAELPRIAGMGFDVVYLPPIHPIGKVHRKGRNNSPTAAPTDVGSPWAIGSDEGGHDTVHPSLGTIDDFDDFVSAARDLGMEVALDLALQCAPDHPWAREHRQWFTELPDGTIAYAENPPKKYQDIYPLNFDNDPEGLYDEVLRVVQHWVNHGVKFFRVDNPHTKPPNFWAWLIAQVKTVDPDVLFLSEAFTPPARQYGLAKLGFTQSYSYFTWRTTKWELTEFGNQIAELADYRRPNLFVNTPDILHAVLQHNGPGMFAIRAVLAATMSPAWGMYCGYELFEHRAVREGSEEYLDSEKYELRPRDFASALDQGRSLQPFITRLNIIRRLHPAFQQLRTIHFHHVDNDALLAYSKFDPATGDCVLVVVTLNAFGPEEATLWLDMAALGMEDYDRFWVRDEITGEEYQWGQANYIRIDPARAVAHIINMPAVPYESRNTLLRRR

As to maltohexaose, the “kcat^app” value on Mtb GlgE (setting [4]) is 7.5 ± 0.4 s⁻¹; on Mtb GlgE (acceptor maltohexaose with 5 mM M1P) it was 15.4 ± 1.1 s⁻¹. Further, the Km (in general, the substrate concentration at which the rate is half of its maximum) at Mtb GlgE (setting [4]) was determined as 13.3 ± 2.4 mM; on Mtb GlgE (acceptor maltohexaose with 5 mM M1P, pH 7.0, 37° C), 35 ± 8 mM.

For `OCC1=C[C@@H](N[C@H]2C[C@H](CO)[C@@H](O[C@H]3O[C@@H](CO)[C@H](O)[C@@H](O)[C@@H]3O)[C@H](O)[C@H]2O)[C@H](O)[C@@H](O)[C@@H]1O` [VA, Validamycin A], the M1P accumulation result in assay [1] is given as “only low levels”. Moreover, the “inhibition of TreS” value with trehalose synthase TreS was “inhibit”. Besides, in the assay on Mtb WT, the “tolerated concentration of the inhibitor” value was 10 mM.

Regarding `O=P(O)(O)O[C@H]1O[C@H](CO)[C@@H](O[C@H]2O[C@H](CO)[C@@H](O)[C@H](O)[C@H]2O)[C@H](O)[C@H]1O` [M1P, α-D-glucopyranosyl(1→4)-α-D-glucopyranosyl 1-phosphate], at Mtb GlgE (setting [5]), the “kcat^app” value is 1.26 ± 0.07 s⁻¹ and the Km stood at 0.25 ± 0.05 mM.

Take `O=P(O)(O)OC1OC(CO)C(OC2OC(CO)C(O)C(O)C2O)C(O)C1O` (stereo not drawn) [β anomer of M1P]: the “GlgE activity as donor” value at Mtb GlgE is “no activity”.

Regarding `OC[C@H]1O[C@H](O[C@H]2O[C@H](CO)[C@@H](O)[C@H](O)[C@H]2O)[C@H](O)[C@@H](O)[C@@H]1O` [trehalose, α-D-glucopyranosyl-(1→1)-α-D-glucopyranoside], in assay [2], the “sensitivity of the mutant” value is “sensitive”. Moreover, in assay [3], the “concentration that completely inhibited growth” value stood at 0.5 mM and the “growth of the mutant” value is “bacteriostatic growth arrest”.

For `OC[C@H]1O[C@@H](O[C@H]2O[C@H](CO)[C@@H](O)[C@H](O)[C@H]2O)[C@H](O)[C@@H](O)[C@@H]1O` [α,β-trehalose, α-D-glucopyranosyl-(1→1)-β-D-glucopyranoside], in assay [3], the “growth of the mutant” value was “not inhibited”.

As to `O=P(O)(O)O` [inorganic phosphate], the “phosphate converted to M1P” value on Mtb GlgE is listed as about 10%. For the same compound, the Km at Mtb GlgE (inorganic phosphate, reverse reaction, estimated) was 6 ± 4 mM.

In the case of `OC[C@H]1O[C@H](O[C@H]2[C@H](O)[C@@H](O)C(O)O[C@@H]2CO)[C@H](O)[C@@H](O)[C@@H]1O` (mixture of isomers) [maltose], the “growth of the mutant” value in assay [3] is recorded as “not inhibited”.

Regarding `NNC(=O)c1ccncc1` [isoniazid], the “1 mg/l expressed as multiple of the MIC” value in the assay on Mtb is 20 times the MIC.
